According to article PMC6968633, “Synthesis, antibacterial and anticancer activity, and docking study of aminoguanidines containing an alkynyl moiety” (Journal of Enzyme Inhibition and Medicinal Chemistry, 2019):
Values after ≈ are worked out from the molar mass of the structure shown. Read-outs that look alike come from different tables or passages of the source.

Tests used:
L02 = assay: Cytotoxicity, CCK-8 assay, normal cell line; type: cell-based; details: L02 normal human hepatocytes, 48 h
Description: (§1) A lung cancer cell line (A549), gastric cancer cell line (SGC7901) and human hepatocytes (L02) were used to test the anticancer activity and cytotoxicity of the new compounds. 5-Fluorouracil (5-FU) was used as the positive control against cancer cell lines. The A549, SGC7901 and L02 cells were grown in Dulbecco’s modified Eagle’s medium (DMEM) supplemented with 10% foetal bovine serum (FBS) and antibiotics (100 U/mL penicillin-streptomycin). Cells at 80–90% confluence were split by trypsin (0.25% in PBS; pH 7.4), and the medium was changed at 24 h intervals. The cells were cultured at 37 °C in a 5% CO2 incubator. The cells were passaged three times, then approximately 1 × 10^4 cells were seeded into each well of a 96-well plate and allowed to incubate to allow attachment of the cells to the surface. After 24 h, the medium was replaced with DMEM supplemented with 10% FBS containing various concentrations (0.1, 0.3, 1, 3, 10, and 30 μg/mL) of test compounds. Each concentration was tested in triplicate. After 48 h treatment, 20 µL of CCK-8 solution was added to each well and the optical density measured at 450 nm after 3 h using a microplate reader. The IC50 values were defined as the concentrations inhibiting 50% of cell growth.

A549 = assay: Cytotoxicity, CCK-8 assay; type: cell-based; details: Homo sapiens, A549 lung cancer cells, 48 h
Description: as §1

SGC7901 = assay: Cytotoxicity, CCK-8 assay; type: cell-based; details: Homo sapiens, SGC-7901, SGC7901 gastric cancer cells, 48 h
Description: as §1

[1] = tested on: Staphyiococcus aureus CMCC 25923; assay: Antibacterial MIC, serial dilution; type: cell-based, Staphylococcus aureus
Description: (§2) Test bacteria were grown to mid-log phase in Mueller–Hinton broth (MHB) or Tryptone Soya Broth (TSB) and diluted 1000-fold in the same medium. Bacteria (10^5 CFU/mL) were inoculated into MHB or TSB and dispensed at 0.2 ml/well into a 96-well microtiter plate. As positive controls, gatifloxacin, moxifloxacin, norfloxacin, oxacillin, and penicillin were used. […] Bacterial growth was determined by measuring the absorption at 630 nm using a microplate reader. All experiments were carried out three times.
(§3) The evaluation of antibacterial activity of all compounds (3a–3j and 6a–6k) was performed by a serial dilution method to determine the MIC against a panel of pathogens comprising five Gram-positive strains (S. aureus (CMCC(B) 26003 and CMCC 25923), Streptococcus mutans BNCC 336931, Enterococcus faecalis CMCC 29212, and Bacillus subtilis CMCC 63501), four Gram-negative strains (E. coli (CMCC 25922 and CMCC 44568) and P. aeruginosa (CMCC 27853 and CMCC 10104)), as well as three methicillin-resistant clinical isolates (S. aureus ATCC 43300 and ATCC 33591, P. aeruginosa ATCC BAA-2111). The results are described in Tables 1 and 2. Gatifloxacin, moxifloxacin, norfloxacin, oxacillin, and penicillin were used as positive controls.

[2] = tested on: Escherichia coli CMCC 44568; assay: Antibacterial MIC, serial dilution; type: cell-based
Description: as §2, §3

[3] = tested on: Pseudomonas aeruginosa CMCC 27853; assay: Antibacterial MIC, serial dilution; type: cell-based
Description: as §2, §3

[4] = tested on: Staphylococcus aureus CMCC(B)26003; assay: Antibacterial MIC, serial dilution; type: cell-based
Description: as §2, §3

[5] = tested on: Streptococcus mutans BNCC 336931; assay: Antibacterial MIC, serial dilution; type: cell-based; details: S. mutans BNCC 336931, 24 h, 37 °C
Description: as §2, §3

[6] = tested on: Pseudomonas aeruginosa CMCC 10104; assay: Antibacterial MIC, serial dilution; type: cell-based; details: P. aeruginosa CMCC 10104, 24 h, 37 °C
Description: as §2, §3

[7] = tested on: Enterococcus faecalis CMCC 29212; assay: Antibacterial MIC, serial dilution; type: cell-based; details: E. faecalis CMCC 29212, 24 h, 37 °C
Description: as §2, §3

[8] = tested on: Bacillus subtilis CMCC 63501; assay: Antibacterial MIC, serial dilution; type: cell-based
Description: as §2, §3

[9] = tested on: Escherichia coli CMCC 25922; assay: Antibacterial MIC, serial dilution; type: cell-based
Description: as §2, §3

[10] = tested on: Staphylococcus aureus ATCC 33591; assay: Antibacterial MIC, multidrug-resistant clinical isolate; type: cell-based; details: multidrug-resistant S. aureus ATCC 33591
Description: as §2, §3

[11] = tested on: Staphylococcus aureus ATCC 43300; assay: as above; type: cell-based; details: multidrug-resistant S. aureus ATCC 43300
Description: as §2, §3

[12] = Staphylococcus aureus, CMCC25923, S. aureus CMCC 25923, 24 h, 37 °C, read-out: MIC
[13] = Escherichia coli, CMCC44568, E. coli CMCC 44568, 24 h, 37 °C, read-out: MIC
[14] = Pseudomonas aeruginosa, CMCC27853, P. aeruginosa CMCC 27853, 24 h, 37 °C, read-out: MIC
[15] = Staphylococcus aureus, S. aureus CMCC(B)26003, 24 h, 37 °C, read-out: MIC
[16] = Streptococcus mutans, BNCC336931, read-out: MIC
[17] = Pseudomonas aeruginosa, CMCC10104, read-out: MIC
[18] = Enterococcus faecalis, CMCC29212, read-out: MIC
[19] = Bacillus subtilis, CMCC63501, B. subtilis CMCC 63501, 24 h, 37 °C, read-out: MIC
[20] = Escherichia coli, CMCC25922, E. coli CMCC 25922, 24 h, 37 °C, read-out: MIC
[21] = Staphylococcus aureus, ATCC33591, read-out: MIC
[22] = Staphylococcus aureus, ATCC43300, read-out: MIC
[23] = Escherichia coli, CMCC44568, 24 h

| Compound | melting point [°C] | MIC [1, 12] [µg/mL] | MIC [2, 13] [µg/mL] | MIC [3, 14] [µg/mL] | MIC [4, 15] [µg/mL] | MIC [5, 16] [µg/mL] | MIC [6, 17] [µg/mL] | MIC [7, 18] [µg/mL] | MIC [8, 19] [µg/mL] | MIC [9, 20] [µg/mL] | MIC [10, 21] [µg/mL] | MIC [11, 22] [µg/mL] | further results |
| --- | --- | --- | --- | --- | --- | --- | --- | --- | --- | --- | --- | --- | --- |
| O=c1[nH]cc(F)c(=O)[nH]1 [5-Fluorouracil, reference compound] | – | – | – | – | – | – | – | – | – | – | – | – | IC50 (L02): 8.44 µg/mL (≈ 64.9 µM); IC50 (A549): 0.88 µg/mL (≈ 6.77 µM); IC50 (SGC7901): 2.56 µg/mL (≈ 19.7 µM) |
| N=C(N)NN=Cc1ccc(C#Cc2ccccc2)cc1 [Compound 3a, 2-(4-(Phenylethynyl)benzylidene)hydrazine-1-carboximidamide] | 225 to 226 | 4 (≈ 15.2 µM) | 4 (≈ 15.2 µM) | 16 (≈ 61 µM) | 1 (≈ 3.81 µM) | 4 (≈ 15.2 µM) | 4 (≈ 15.2 µM) | 1 (≈ 3.81 µM) | 2 (≈ 7.62 µM) | 4 (≈ 15.2 µM) | – | – | – |
| N=C(N)NN=Cc1ccc(C#Cc2ccccc2F)cc1 [Compound 3b, 2-(4-((2-Fluorophenyl)ethynyl)benzylidene)hydrazine-1-carboximidamide] | 189 to 190 | 8 (≈ 28.5 µM) | 8 (≈ 28.5 µM) | 128 (≈ 457 µM) | 1 (≈ 3.57 µM) | 4 (≈ 14.3 µM) | 8 (≈ 28.5 µM) | 1 (≈ 3.57 µM) | 2 (≈ 7.14 µM) | 4 (≈ 14.3 µM) | – | – | – |
| N=C(N)NN=Cc1ccc(C#Cc2cccc(F)c2)cc1 [Compound 3c, 2-(4-((3-Fluorophenyl)ethynyl)benzylidene)hydrazine-1-carboximidamide] | 223 to 224 | 4 (≈ 14.3 µM) | 4 (≈ 14.3 µM) | 16 (≈ 57.1 µM) | 1 (≈ 3.57 µM) | 2 (≈ 7.14 µM) | 2 (≈ 7.14 µM) | 1 (≈ 3.57 µM) | 1 (≈ 3.57 µM) | 2 (≈ 7.14 µM) | 1 (≈ 3.57 µM) | 2 (≈ 7.14 µM) | – |
| N=C(N)NN=Cc1ccc(C#Cc2ccc(F)cc2)cc1 [Compound 3d, 2-(4-((4-Fluorophenyl)ethynyl)benzylidene)hydrazine-1-carboximidamide] | 238 to 239 | 2 (≈ 7.14 µM) | 8 (≈ 28.5 µM) | 8 (≈ 28.5 µM) | 1 (≈ 3.57 µM) | 4 (≈ 14.3 µM) | 2 (≈ 7.14 µM) | 1 (≈ 3.57 µM) | 1 (≈ 3.57 µM) | 2 (≈ 7.14 µM) | 1 (≈ 3.57 µM) | 4 (≈ 14.3 µM) | – |
| N=C(N)NN=Cc1ccc(C#Cc2ccccc2Br)cc1 [Compound 3h, 2-(4-((2-Bromophenyl)ethynyl)benzylidene)hydrazine-1-carboximidamide] | 188 to 190 | 1 (≈ 2.93 µM) | 4 (≈ 11.7 µM) | > 128 | 2 (≈ 5.86 µM) | 2 (≈ 5.86 µM) | 8 (≈ 23.4 µM) | 1 (≈ 2.93 µM) | 2 (≈ 5.86 µM) | 4 (≈ 11.7 µM) | – | – | – |
| N=C(N)NN=Cc1ccc(C#Cc2ccc(Br)cc2)cc1 [Compound 3j, 2-(4-((4-Bromophenyl)ethynyl)benzylidene)hydrazine-1-carboximidamide] | 242 to 243 | 1 (≈ 2.93 µM) | 128 (≈ 375 µM) | > 128 | 0.5 (≈ 1.47 µM) | 0.5 (≈ 1.47 µM) | 128 (≈ 375 µM) | 0.5 (≈ 1.47 µM) | 128 (≈ 375 µM) | 2 (≈ 5.86 µM) | 0.5 (≈ 1.47 µM) | 2 (≈ 5.86 µM) | – |
| N=C(N)NN=Cc1ccc(C#CC#Cc2cccc(F)c2)cc1 [Compound 6c, 2-(4-((3-Fluorophenyl)buta-1,3-diyn-1-yl)benzylidene)hydrazine-1-carboximidamide] | 186 to 190 | 128 (≈ 421 µM) | > 128 | > 128 | 128 (≈ 421 µM) | 0.5 (≈ 1.64 µM) | 4 (≈ 13.1 µM) | 0.5 (≈ 1.64 µM) | 2 (≈ 6.57 µM) | 2 (≈ 6.57 µM) | – | – | – |
| N=C(N)NN=Cc1ccc(C#CC#Cc2cccc(Cl)c2)cc1 [Compound 6f, 2-(4-((3-Chlorophenyl)buta-1,3-diyn-1-yl)benzylidene)hydrazine-1-carboximidamide] | 198 to 201 | 8 (≈ 24.9 µM) | 32 (≈ 99.8 µM) | > 128 | 1 (≈ 3.12 µM) | 0.5 (≈ 1.56 µM) | 16 (≈ 49.9 µM) | 0.5 (≈ 1.56 µM) | 4 (≈ 12.5 µM) | 4 (≈ 12.5 µM) | – | – | – |
| N=C(N)NN=Cc1ccc(C#CC#Cc2ccccc2Br)cc1 [Compound 6h, 2-(4-((2-Bromophenyl)buta-1,3-diyn-1-yl)benzylidene)hydrazine-1-carboximidamide] | 217 to 219 | 32 (≈ 87.6 µM) | 128 (≈ 350 µM) | > 128 | 1 (≈ 2.74 µM) | 1 (≈ 2.74 µM) | 8 (≈ 21.9 µM) | 0.5 (≈ 1.37 µM) | 2 (≈ 5.48 µM) | 8 (≈ 21.9 µM) | – | – | – |
| N=C(N)NN=Cc1ccc(C#CC#Cc2ccc(Br)cc2)cc1 [Compound 6j, 2-(4-((4-Bromophenyl)buta-1,3-diyn-1-yl)benzylidene)hydrazine-1-carboximidamide] | 227 to 230 | > 128 | > 128 | > 128 | 128 (≈ 350 µM) | > 128 | > 128 | 128 (≈ 350 µM) | > 128 | > 128 | – | – | – |
| COc1c(N2C[C@@H]3CCCN[C@@H]3C2)c(F)cc2c(=O)c(C(=O)O)cn(C3CC3)c12 [Moxifloxacin, reference compound] | – | – | – | – | – | 0.5 (≈ 1.25 µM) | 4 (≈ 9.96 µM) | – | – | – | 0.25 (≈ 0.623 µM) | 0.5 (≈ 1.25 µM) | MIC ([1]; Staphylococcus aureus, CMCC25923, 24 h): 0.125 µg/mL (≈ 0.311 µM); MIC [2, 23]: 0.125 µg/mL (≈ 0.311 µM); MIC ([4]; Staphylococcus aureus, 24 h): 0.125 µg/mL (≈ 0.311 µM); MIC ([9]; Escherichia coli, CMCC25922, 24 h): 0.125 µg/mL (≈ 0.311 µM) |
| Cc1onc(-c2ccccc2)c1C(=O)N[C@@H]1C(=O)N2[C@@H]1SC(C)(C)[C@@H]2C(=O)O [Oxacillin, reference compound] | – | 0.125 (≈ 0.311 µM) | – | – | 0.125 (≈ 0.311 µM) | 0.125 (≈ 0.311 µM) | 128 (≈ 319 µM) | 128 (≈ 319 µM) | – | 128 (≈ 319 µM) | 8 (≈ 19.9 µM) | 64 (≈ 159 µM) | MIC [2, 23]: > 128 µg/mL; MIC ([3]; Pseudomonas aeruginosa, CMCC27853, 24 h): > 128 µg/mL; MIC ([8]; Bacillus subtilis, CMCC63501, 24 h): > 128 µg/mL |
| Penicillin [reference compound] | – | – | – | – | – | – | – | – | – | – | – | – | MIC [10]: >32 µg/mL; MIC ([10]; listed as penicillin): > 32 µg/mL; MIC [11]: 32 µg/mL; MIC ([1]; S. aureus CMCC 25923, 24 h, 37 °C): 0.125 µg/mL; MIC ([2]; E. coli CMCC 44568, 24 h, 37 °C): >128 µg/mL; MIC ([3]; P. aeruginosa CMCC 27853, 24 h, 37 °C): >128 µg/mL; MIC ([4]; S. aureus CMCC(B)26003, 24 h, 37 °C): 0.125 µg/mL; MIC [5]: 0.125 µg/mL; MIC [6]: 32 µg/mL; MIC [7]: 128 µg/mL; MIC ([8]; B. subtilis CMCC 63501, 24 h, 37 °C): 128 µg/mL; MIC ([9]; E. coli CMCC 25922, 24 h, 37 °C): 128 µg/mL |
